Test results from PMC4492750, “The discovery of a selective and potent A2a agonist with extended lung retention” (Pharmacology Research & Perspectives, 2015).
Converted amounts (≈) assume the structure as drawn. Where two headings read alike, the source gives them in different places.

Key:
[1] = design: method as in Mantell et al. [2009], [2010]; conditions: over the dose range tested; ref Mantell et al. [2009], [2010]; cited from earlier work
[2] = system: LPS-induced TNFα production in rat splenocytes; test: LPS-induced TNFα production in rat mononuclear spleen cells (rTNFα splenocytes); type: cell-based; conditions: Splenocyte, LPS-stimulated TNFα release, rat splenocytes, average (SD); for Emax: read-out: rTNFα splenocytes Intrinsic activity
Description: (§1) • Human A2a and A2b receptor pharmacology: Chinese hamster ovary CHO-K1 cells stably expressing human A2a and A2b receptors were used to determine substances agonistic potency and intrinsic activity. […] The signal corresponding to adenosine at 100 μmol/L was used to define 100% intrinsic activity. • Human A3 receptor pharmacology: A3 receptor Gi coupling was measured by GTPγ ^35[S] filter assay at serial dilutions of compound using membranes from Perkin-Elmer. The signal corresponding to the maximal response of NECA at 100 μmol/L was set to 100% intrinsic activity. • Lipopolysaccharide (LPS)-induced TNFα production in primary human peripheral blood mononuclear cells (hTNFα PBMC) and rat mononuclears (rTNFα splenocytes): Human PBMC and rat mononuclear spleen cells were incubated with serial dilutions of compound and stimulated with LPS.
Procedures and assays were run in R10 buffer (RPMI 1640 Medium supplemented with GlutaMAX™ and HEPES (GIBCO-BRL), 10% fetal calf serum, penicillin and streptomycin (each 5000IU/ml)). Human PBMC were purified from heparinised blood by Ficoll separation (Ficoll, Amersham Pharmacia Biotech AB, Cat: 17-1440-03, Lot: 312170) and rat mononuclear cells were collected after rat spleen perfusion. Both cell preparations were followed by hypotonic lysis of residual erythrocytes. Serial dilutions of compounds were pre-incubated with 200 000 cells/well (96-well plate) for 45min in 37 °C (190µl). Cells were stimulated by 10µl LPS (final concentration 0.5ng/ml human and 150ng/ml rat; SIGMA Cat: L-4516, Lot: 104K4036) for 18h at 37 °C. TNFα release was measured by ELISA (^TmR&D Systems plates) according to the manufacturer’s instructions in cell free supernatant.

[3] = Substance solubility in phosphate buffer; type: physicochemical; conditions: aqueous buffer, thermodynamic from solid; phosphate buffer pH 7.4, dry compound in solid state
Description: as §1
Solubility was measured in phosphate buffer at pH 7.4 using dry compounds in solid state.

[4] = design: method as in Mantell et al. [2010]; conditions: ref Mantell et al. [2010]; cited from earlier work
[5] = In vivo pharmacokinetics in rats (i.v., oral, intratracheal); conditions: for Rat blood clearance: i.v.; for half-life: lung, inhaled or intranasal, intratracheal dosing, n = 2/time point, read-out: Lung t½ (terminal half-life in lung) (converted); for Kp at 24 h: other: intratracheal (i.t.), i.t., ratio of lung concentration 24 h after dose to blood Cmax after same dose, read-out: Lung/blood split
Description: Rat PK was determined after an i.v. dose of 0.1μmol/kg (approximately 50μg/kg, 1ml/kg, TEG:H2O 50:50) given via a catheter in vena jugularis. The PK after oral administration was performed at a dose of 6μmol/kg (approximately 3mg/kg, 4ml/kg, 0.5% HPMC) given by gavage. Intratracheal PK was determined at 0.03 to 0.6μmol/kg (17 to 300μg/kg, 1ml/kg, in a vehicle containing sodium chloride (8.5mg/ml), EDTA (0.1mg/ml), citric acid (0.15mg/ml), sodium citrate (0.5mg/ml) and polysorbate 80 (0.2mg/mL) in purified water). The i.t. dose was given to anaesthetized (isofluran) rats, positioned at approximately 30° angle (head up) and the compound was administered in the trachea using a modified metal cannula. Rats were put back in their cages while regaining consciousness. Serial blood sampling of 100 to 200µl was performed after i.v. and p.o. dosing at pre-defined timepoints. Blood was mixed 1:4 with purified water containing heparin (10 to 30U/ml) in order to haemolyse the blood cells, and then placed in a 96-well plate and stored at –70°C until analysed. The dilution factor was accounted for in the data analysis. After i.t. dosing, animals were euthanized with isoflurane or pentobarbital at defined timepoints after dosing, blood samples taken from the vena jugularis or arteria carotis, handled and stored as described above. The rats were bled to drain as much blood as possible from the lungs. The lungs including the trachea were carefully dissected out with all non-relevant tissue removed, placed in pre-weighed vials and weighed. The lung vials were stored at –70°C until analyzed.
Lung tissue was frozen in liquid nitrogen and homogenised using a CryoPrep pneumatic hammer. The homogenisation of the tissue and the extraction of the compound were done in 4ml Ringer solution with an Adaptive Focused Acoustic Instrument. 50µl of the supernatant was transferred to a 96-well plate. All lung, blood and plasma samples were analysed by LC-MS/MS using a selective and sensitive method. Peak areas were used in comparison to those produced by the standard curve to determine parent compound concentrations. Homogenate concentrations were adjusted to account for the sample dilutions to give tissue concentrations.

[6] = Lipophilicity (LogD), shake flask; type: physicochemical; conditions: octanol-water, phosphate buffer pH 7.4; for logD at 10 min: 1-octanol / phosphate buffer
Description: as §1
The octanol-water partition coefficient (LogD) was measured using the shake flask method. 600µL of 1-octanol was added to a vial with 6µL of 10mM DMSO-solution of the test compound. 600µL of 10mM sodium phosphate buffer adjusted to pH 7.4 was added and equilibrium was performed by vigorous shaking for ten minutes with an Eppendorf mixer. The phases were separated by centrifugation. The samples were analysed by HPLC with UV-detection at 254nm.

patients with COPD = system: patients with COPD; design: method as in Mantell et al. [2009], [2010]; conditions: ref Mantell et al. [2009], [2010]; cited from earlier work
[7] = Plasma protein binding by equilibrium dialysis; type: in vitro ADME; conditions: male, Wistar, pH 7.4, rat plasma, 10 μmol/L, read-out: fu rat (free unbound drug in plasma)
Description: as §1
The plasma protein binding was determined in plasma from male Wistar rats at a compound concentration of 10μM by equilibrium dialysis against a phosphate buffer at pH 7.4 using a semi-permeable membrane with a molecular cut-off of 6-8KDa (Spectra/Por, Spectrum Laboratories Inc, US). The compounds were dialyzed for 18h at 37±1°C in an air incubator on an orbital shaker. The samples were analysed using LC-MS/MS.

A2a = A2a (Homo sapiens, UniProt P29274); test: Human A2a receptor pharmacology: cAMP Alphascreen in CHO-K1 cells; type: cell-based; design: expressed in transfected cells; host or cells: CHO-K1; conditions: average (SD); for Emax: CHO-K1, 100% = 10 μmol/L NECA, read-out: A2a human CHO-K1 cells Intrinsic activity; for EC50: cAMP generation
Description: as §1
Chinese hamster ovary CHO-K1 cells stably expressing human A2a and A2b receptors were stored as 1ml aliquots at -150 °C in freezing medium, thawed immediately prior to assay. […] Cells (10000 cells/well) were incubated with test compounds prepared as serial dilutions. Potency (EC50) and efficacy (% of maximal response) were calculated from data fitted to a 4-parameter logistic function. The signal of 10µM NECA represented the maximal cAMP response (i.e. 100% of efficacy) produced by these cells.

[8] = system: allergen-challenged Brown Norway rats; design: method as in Fozard et al. [2002]; conditions: intratracheal; ref Fozard et al. [2002]; cited from earlier work
[9] = system: LPS-induced BAL neutrophils; test: LPS-induced lung inflammation model, neutrophils in BAL fluid; type: in vivo, rat; conditions: data not shown
Description: The efficacy of the compound on neutrophils in BAL fluid is expressed as per cent inhibition of the full window (negative veh/veh controls vs. the positive veh/LPS controls): Inhibition (%) of LPS-induced BAL neutrophils by compound 2 was calculated using the following formula: [drawing 1] where A is the average in the group administered with vehicle and challenged with LPS; B is the average in the group administered with vehicle and challenged with saline; and C is the average in the group administered with test compound and challenged with LPS.
Animals in all efficacy studies were dosed intratracheally as described above in a buffered saline vehicle (pH 5) containing sodium chloride (8.5mg/ml), citric acid (0.28mg/ml) and sodium citrate (0.5mg/ml). The compound was dissolved in saline when given intravenously (0.9% NaCl) to the swivelled rats.
[…] Each rat was given LPS from the Pseudomona Aeruginosa bacteria (1µg/rat, 5µg/ml saline, Sigma-Aldrich, Sweden).
24 hours after the LPS challenge, rats were anaesthetized and exsanguinated via a cardiac incision. A tube was inserted and ligated to the trachea. The tube was connected to a syringe with 4ml PBS (without Ca^2+/Mg^2+) and a lavage of the whole lung was performed manually. The BAL fluid was collected individually in polyethylene tubes and kept on ice until further processed.
The BAL fluid was centrifuged and the supernatant separated from the cell pellet that was resuspended in 1.0ml of PBS. The total number of cells and cell differentia was counted in an automated cell counter and haematology analyzer (SYSMEX XT-1800iV, software for the rat BALF).

heart = system: heart; design: method as in Macallum et al. [1991]; conditions: oral, dog study; ref Macallum et al. [1991]; cited from earlier work

Chain of A2a (P29274 whole entry): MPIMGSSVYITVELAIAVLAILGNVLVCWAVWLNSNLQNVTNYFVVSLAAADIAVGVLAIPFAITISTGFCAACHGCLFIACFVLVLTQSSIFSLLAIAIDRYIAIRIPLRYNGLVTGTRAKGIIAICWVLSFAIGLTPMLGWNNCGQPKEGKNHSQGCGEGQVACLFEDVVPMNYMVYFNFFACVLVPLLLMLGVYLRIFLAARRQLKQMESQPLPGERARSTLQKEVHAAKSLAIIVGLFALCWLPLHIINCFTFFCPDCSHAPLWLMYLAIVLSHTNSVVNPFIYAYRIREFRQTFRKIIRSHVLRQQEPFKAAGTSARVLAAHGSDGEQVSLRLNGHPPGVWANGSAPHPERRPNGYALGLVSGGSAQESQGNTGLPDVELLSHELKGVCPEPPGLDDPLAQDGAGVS

Row | IC50 [2] [nM] | solubility [3] [µM] | Rat blood clearance ([5]; mean of n = 3) [mL/min per kg] | half-life ([5]; rat) [min] | Kp at 24 h ([5]; rat) | fraction unbound at 18 h, 10 μM [7] | Emax (A2a) [%] | EC50 (A2a) [nM] | logD at 10 min [6] | SMILES | Emax [2] [%] | other results
1 | 3.2 | > 1000 | 65 | 360 | 1.8 | 0.2 | 102 | 2.4 | 2 | CCNC(=O)[C@H]1O[C@@H](n2cnc3c(NC(CC)CC)nc(NCCNC(=O)Nc4ccncc4)nc32)[C@H](O)[C@@H]1O [Compound 1, (2S,3S,4R,5R)-N-ethyl-5-[6-(1-ethylpropylamino)-2-[2-(4-pyridylcarbamoylamino)ethylamino]purin-9-yl]-3,4-dihydroxy-tetrahydrofuran-2-carboxamide] | 53.4 | bioavailability ([5]; whole blood, 6 umol/kg, rat, oral, mean of n = 3, read-out: Rat oral F (bioavailability)): 1.4%
2 | 6.9 | – | 26 | 60 | < 0.08 | 0.17 | – | – | < -1 | CCNC(=O)[C@H]1O[C@@H](n2cnc3c(N)nc(NCCc4ccc(CCC(=O)O)cc4)nc32)[C@H](O)[C@@H]1O [CGS21680, 3-[4-[2-[[6-amino-9-[(2R,3R,4S,5S)-5-(ethylcarbamoyl)-3,4-dihydroxy-tetrahydrofuran-2-yl]purin-2-yl]amino]ethyl]phenyl]propanoic acid, reference compound] | 63.5 | Effect on lung inflammation [8]: inhibited lung inflammation; Percentage of dose remaining in lung at 4 h ([5]; rat, single i.t. dose 300 μg/kg, 4 h): less than 1%; Pretreatment time at which maximal efficacy was seen [9]: 30 min
3 | – | – | – | – | – | – | – | – | – | OC[C@H]1O[C@@H](n2cnc3c(NCC(c4ccccc4)c4ccccc4)ncnc32)[C@H](O)[C@@H]1O [DPEA, N-(2,2-diphenylethyl) adenosine] | – | Myocardial findings (heart): myocardial degeneration and necrosis
4 | 0.2 | 420 | 42 | 4800 | 1800 | 0.11 | 96.2 | 0.4 | -0.35 | CCNC(=O)[C@H]1O[C@@H](n2cnc3c(NCC(c4ccccc4)c4ccccc4)nc(NCCNC(=O)Nc4cc[n+](C)cc4)nc32)[C@H](O)[C@@H]1O [Compound 3, (2S,3S,4R,5R)-5-[6-(2,2-diphenylethylamino)-2-[2-[(1-methylpyridin-1-ium-4-yl)carbamoylamino]ethylamino]purin-9-yl]-N-ethyl-3,4-dihydroxy-tetrahydrofuran-2-carboxamide] | 58 | Percentage of dose remaining in lung at 24 h ([5]; rat, single i.t. dose (17 and 20 μmol/kg for compounds 2 and 3 as printed in Fig. 5), 24 h): 52%

Row | SMILES | IC50 [2] [nM] | solubility [3] [µM] | Rat blood clearance ([5]; mean of n = 3) [mL/min per kg] | half-life ([5]; rat) [min] | Kp at 24 h ([5]; rat) | fraction unbound at 18 h, 10 μM [7] | Emax (A2a) [%] | EC50 (A2a) [nM] | logD at 10 min [6] | Emax [2] [%] | other results
5 | CCNC(=O)[C@H]1O[C@@H](n2cnc3c(NCC(c4ccccc4)c4ccccc4)nc(C(=O)NCCNC(=O)NC4CCN(c5ccccn5)CC4)nc32)[C@H](O)[C@@H]1O [UK-432,097, 6-(2,2-diphenylethylamino)-9-[(2R,3R,4S,5S)-5-(ethylcarba-moyl)-3,4-dihydroxy-tetrahydrofuran-2-yl]-N-[2-[[1-(2-pyridyl)-4-piperidyl]carbamoylamino]ethyl]purine-2-carboxamide, reference compound] | 2.6 | 12 (≈ 9.33 µg/mL) | 37 | 240 | 2.7 | 0.014 | – | – | – | 60.9 | Safety in Phase I clinical study [1]: no safety limitation; Clearance [4]: rapid; Oral bioavailability [4]: low; Plasma protein binding [4]: high; solubility [4]: low; Percentage of dose remaining in lung at 6 h ([5]; rat, i.t. dose 130 μg/kg, 6 h): approximately 3%; LogD [6]: 3.4; Efficacy in Phase II study (patients with COPD): failed to show efficacy
